Literature values, collected in US9968537B2, “Anti-dandruff compositions and hair care formulations containing zinc pyrithione and quaternary ammonium salt” (JUBILANT LIFE SCIENCES LIMITED, priority 2013, dated 2018).

Conditions: background statement

## [O-][n+]1ccccc1S.[Zn] [ZPTO, zinc pyridine-2-thiol-N-oxide]
  solubility in water: 6-12 ppm
